# From the NIST ThermoML archive (doi:10.1021/je3007666)
# ± gives the expanded uncertainty stated by the source.
# Test: relative permittivity at zero frequency (dimensionless); xn = mol fraction of the nth substance listed
# Settings: 100 kPa, Liquid, Dielectrometer
compound,measurement,setting,value
CCC(C)O (stereo not given) [butan-2-ol] + CCCCO,relative permittivity at zero frequency,"288.15 K, x1 = 0.0501",18.97 ± 0.06
same,relative permittivity at zero frequency,"288.15 K, x1 = 0.0987",18.93 ± 0.06
same,relative permittivity at zero frequency,"288.15 K, x1 = 0.1506",18.89 ± 0.06
same,relative permittivity at zero frequency,"288.15 K, x1 = 0.1998",18.86 ± 0.06
same,relative permittivity at zero frequency,"288.15 K, x1 = 0.2503",18.82 ± 0.06
same,relative permittivity at zero frequency,"288.15 K, x1 = 0.2986",18.79 ± 0.06
same,relative permittivity at zero frequency,"288.15 K, x1 = 0.3512",18.75 ± 0.06
same,relative permittivity at zero frequency,"288.15 K, x1 = 0.3977",18.72 ± 0.06
same,relative permittivity at zero frequency,"288.15 K, x1 = 0.4497",18.69 ± 0.06
same,relative permittivity at zero frequency,"288.15 K, x1 = 0.4998",18.67 ± 0.06
same,relative permittivity at zero frequency,"288.15 K, x1 = 0.5501",18.64 ± 0.06
same,relative permittivity at zero frequency,"288.15 K, x1 = 0.6011",18.61 ± 0.06
same,relative permittivity at zero frequency,"288.15 K, x1 = 0.649",18.59 ± 0.06
same,relative permittivity at zero frequency,"288.15 K, x1 = 0.7005",18.57 ± 0.06
same,relative permittivity at zero frequency,"288.15 K, x1 = 0.7511",18.55 ± 0.06
same,relative permittivity at zero frequency,"288.15 K, x1 = 0.7986",18.53 ± 0.06
same,relative permittivity at zero frequency,"288.15 K, x1 = 0.8498",18.51 ± 0.06
same,relative permittivity at zero frequency,"288.15 K, x1 = 0.9006",18.5 ± 0.06
same,relative permittivity at zero frequency,"288.15 K, x1 = 0.9487",18.48 ± 0.06
same,relative permittivity at zero frequency,"288.15 K, x1 = 1",18.47 ± 0.06
same,relative permittivity at zero frequency,"293.15 K, x1 = 0.0501",18.24 ± 0.06
same,relative permittivity at zero frequency,"293.15 K, x1 = 0.0987",18.2 ± 0.06
same,relative permittivity at zero frequency,"293.15 K, x1 = 0.1506",18.15 ± 0.06
same,relative permittivity at zero frequency,"293.15 K, x1 = 0.1998",18.11 ± 0.06
same,relative permittivity at zero frequency,"293.15 K, x1 = 0.2503",18.07 ± 0.06
same,relative permittivity at zero frequency,"293.15 K, x1 = 0.2986",18.03 ± 0.06
same,relative permittivity at zero frequency,"293.15 K, x1 = 0.3512",17.99 ± 0.06
same,relative permittivity at zero frequency,"293.15 K, x1 = 0.3977",17.95 ± 0.06
same,relative permittivity at zero frequency,"293.15 K, x1 = 0.4497",17.91 ± 0.06
same,relative permittivity at zero frequency,"293.15 K, x1 = 0.4998",17.87 ± 0.06
same,relative permittivity at zero frequency,"293.15 K, x1 = 0.5501",17.83 ± 0.06
same,relative permittivity at zero frequency,"293.15 K, x1 = 0.6011",17.79 ± 0.06
same,relative permittivity at zero frequency,"293.15 K, x1 = 0.649",17.76 ± 0.06
same,relative permittivity at zero frequency,"293.15 K, x1 = 0.7005",17.72 ± 0.06
same,relative permittivity at zero frequency,"293.15 K, x1 = 0.7511",17.68 ± 0.06
same,relative permittivity at zero frequency,"293.15 K, x1 = 0.7986",17.65 ± 0.06
same,relative permittivity at zero frequency,"293.15 K, x1 = 0.8498",17.62 ± 0.06
same,relative permittivity at zero frequency,"293.15 K, x1 = 0.9006",17.58 ± 0.06
same,relative permittivity at zero frequency,"293.15 K, x1 = 0.9487",17.55 ± 0.06
same,relative permittivity at zero frequency,"293.15 K, x1 = 1",17.51 ± 0.06
same,relative permittivity at zero frequency,"298.15 K, x1 = 0.0501",17.54 ± 0.06
same,relative permittivity at zero frequency,"298.15 K, x1 = 0.0987",17.49 ± 0.06
same,relative permittivity at zero frequency,"298.15 K, x1 = 0.1506",17.44 ± 0.06
same,relative permittivity at zero frequency,"298.15 K, x1 = 0.1998",17.4 ± 0.06
same,relative permittivity at zero frequency,"298.15 K, x1 = 0.2503",17.35 ± 0.06
same,relative permittivity at zero frequency,"298.15 K, x1 = 0.2986",17.3 ± 0.06
same,relative permittivity at zero frequency,"298.15 K, x1 = 0.3512",17.25 ± 0.06
same,relative permittivity at zero frequency,"298.15 K, x1 = 0.3977",17.2 ± 0.06
same,relative permittivity at zero frequency,"298.15 K, x1 = 0.4497",17.16 ± 0.06
same,relative permittivity at zero frequency,"298.15 K, x1 = 0.4998",17.11 ± 0.06
same,relative permittivity at zero frequency,"298.15 K, x1 = 0.5501",17.06 ± 0.06
same,relative permittivity at zero frequency,"298.15 K, x1 = 0.6011",17.01 ± 0.06
same,relative permittivity at zero frequency,"298.15 K, x1 = 0.649",16.96 ± 0.06
same,relative permittivity at zero frequency,"298.15 K, x1 = 0.7005",16.91 ± 0.06
same,relative permittivity at zero frequency,"298.15 K, x1 = 0.7511",16.86 ± 0.06
same,relative permittivity at zero frequency,"298.15 K, x1 = 0.7986",16.81 ± 0.06
same,relative permittivity at zero frequency,"298.15 K, x1 = 0.8498",16.76 ± 0.06
same,relative permittivity at zero frequency,"298.15 K, x1 = 0.9006",16.71 ± 0.06
same,relative permittivity at zero frequency,"298.15 K, x1 = 0.9487",16.66 ± 0.06
same,relative permittivity at zero frequency,"298.15 K, x1 = 1",16.6 ± 0.06
same,relative permittivity at zero frequency,"303.15 K, x1 = 0.0501",16.86 ± 0.06
same,relative permittivity at zero frequency,"303.15 K, x1 = 0.0987",16.81 ± 0.06
same,relative permittivity at zero frequency,"303.15 K, x1 = 0.1506",16.76 ± 0.06
same,relative permittivity at zero frequency,"303.15 K, x1 = 0.1998",16.71 ± 0.06
same,relative permittivity at zero frequency,"303.15 K, x1 = 0.2503",16.65 ± 0.06
same,relative permittivity at zero frequency,"303.15 K, x1 = 0.2986",16.6 ± 0.06
same,relative permittivity at zero frequency,"303.15 K, x1 = 0.3512",16.54 ± 0.06
same,relative permittivity at zero frequency,"303.15 K, x1 = 0.3977",16.49 ± 0.06
same,relative permittivity at zero frequency,"303.15 K, x1 = 0.4497",16.43 ± 0.06
same,relative permittivity at zero frequency,"303.15 K, x1 = 0.4998",16.37 ± 0.06
same,relative permittivity at zero frequency,"303.15 K, x1 = 0.5501",16.32 ± 0.06
same,relative permittivity at zero frequency,"303.15 K, x1 = 0.6011",16.26 ± 0.06
same,relative permittivity at zero frequency,"303.15 K, x1 = 0.649",16.2 ± 0.06
same,relative permittivity at zero frequency,"303.15 K, x1 = 0.7005",16.14 ± 0.06
same,relative permittivity at zero frequency,"303.15 K, x1 = 0.7511",16.07 ± 0.06
same,relative permittivity at zero frequency,"303.15 K, x1 = 0.7986",16.01 ± 0.06
same,relative permittivity at zero frequency,"303.15 K, x1 = 0.8498",15.95 ± 0.06
same,relative permittivity at zero frequency,"303.15 K, x1 = 0.9006",15.88 ± 0.06
same,relative permittivity at zero frequency,"303.15 K, x1 = 0.9487",15.82 ± 0.06
same,relative permittivity at zero frequency,"303.15 K, x1 = 1",15.75 ± 0.06
same,relative permittivity at zero frequency,"308.15 K, x1 = 0.0501",16.21 ± 0.06
same,relative permittivity at zero frequency,"308.15 K, x1 = 0.0987",16.16 ± 0.06
same,relative permittivity at zero frequency,"308.15 K, x1 = 0.1506",16.1 ± 0.06
same,relative permittivity at zero frequency,"308.15 K, x1 = 0.1998",16.05 ± 0.06
same,relative permittivity at zero frequency,"308.15 K, x1 = 0.2503",15.99 ± 0.06
same,relative permittivity at zero frequency,"308.15 K, x1 = 0.2986",15.93 ± 0.06
same,relative permittivity at zero frequency,"308.15 K, x1 = 0.3512",15.87 ± 0.06
same,relative permittivity at zero frequency,"308.15 K, x1 = 0.3977",15.81 ± 0.06
same,relative permittivity at zero frequency,"308.15 K, x1 = 0.4497",15.74 ± 0.06
same,relative permittivity at zero frequency,"308.15 K, x1 = 0.4998",15.68 ± 0.06
same,relative permittivity at zero frequency,"308.15 K, x1 = 0.5501",15.61 ± 0.06
same,relative permittivity at zero frequency,"308.15 K, x1 = 0.6011",15.54 ± 0.06
same,relative permittivity at zero frequency,"308.15 K, x1 = 0.649",15.47 ± 0.06
same,relative permittivity at zero frequency,"308.15 K, x1 = 0.7005",15.4 ± 0.06
same,relative permittivity at zero frequency,"308.15 K, x1 = 0.7511",15.32 ± 0.06
same,relative permittivity at zero frequency,"308.15 K, x1 = 0.7986",15.25 ± 0.06
same,relative permittivity at zero frequency,"308.15 K, x1 = 0.8498",15.17 ± 0.06
same,relative permittivity at zero frequency,"308.15 K, x1 = 0.9006",15.09 ± 0.06
same,relative permittivity at zero frequency,"308.15 K, x1 = 0.9487",15.01 ± 0.06
same,relative permittivity at zero frequency,"308.15 K, x1 = 1",14.94 ± 0.06
